{"source": "patent US20230165872A1", "about": "“COMBINATION OF BCMA-DIRECTED T CELL THERAPY AND AN IMMUNOMODULATORY COMPOUND” (Juno Therapeutics, Inc., priority 2020, published 2023)", "key": {"RPMI-8226 target cells": {"test_system": "RPMI-8226 target cells", "assay": "Acute co-culture cytokine secretion of anti-BCMA CAR T cells with RPMI-8226", "assay_type": "cell-based, human", "details": "RPMI-8226, E:T 1:1, 24 hours, 0.01-10,000 nM, FIG. 2A", "description": "Anti-tumor effects of anti-BCMA CAR T cells, alone and in combination with cell immunomodulatory compounds Compound A (iberdomide, (S)-3-[4-(4-morpholin-4-ylmethyl-benzyloxy)-1-oxo-1,3-dihydro-isoindol-2-yl]-piperidine-2,6-dione) or Compound B ((S)-4-(4-(4-(((2-(2,6-dioxopiperidin-3-yl)-1-oxoisoindolin-4-yl)oxy)methyl)benzyl)piperazin-1-yl)-3-fluorobenzonitrile), were assessed in two different BCMA-expressing target multiple myeloma cell lines RPMI-8226 or OPM-2. Anti-BCMA CAR+ T cells were generated as described in Example 1.\nThe anti-BCMA CAR-expressing T cells were incubated with target cells, RPMI 8226 (BCMA^med human multiple myeloma cell line) or OPM2 cells (BCMA^med human multiple myeloma cell line) target cells, at an E:T ratio of 1:1. The co-culture incubation with target cells was carried out in the presence of Compound A (0.01 nM, 0.1 nM, 1 nM, 10 nM, 100 nM, 1000 nM, or 10,000 nM) or Compound B (0.01 nM, 0.1 nM, 1 nM, 10 nM, 100 nM, 1000 nM, or 10,000 nM)."}, "[1]": {"test_system": "IMiD/CELMoD resistant cell line DF-15R", "assay": "Rescue: rechallenge of chronically stimulated anti-BCMA CAR T cells with DF-15R", "assay_type": "cell-based, human", "details": "DF-15R rechallenge after 7-day chronic stimulation", "description": "Studies were undertaken to determine whether Compound A (iberdomide, (S)-3-[4-(4-morpholin-4-ylmethyl-benzyloxy)-1-oxo-1,3-dihydro-isoindol-2-yl]-piperidine-2,6-dione) rescued anti-BCMA CAR T cell function following chronic stimulation. To directly stimulate via CAR engagement to induce chronic stimulation of cells, anti-BCMA CAR T cells were stimulated with BCMA conjugated beads (diameter about 4.5 μm from a 50 μg/ml BCMA-conjugated bead composition, generated as described in Example 9) at a ratio of T cells to beads of 1:1. The cells were then incubated at 37° C., 5% CO2 for 7 days.\nTo further elucidate the role of Compound A on the target cells compared to the CAR T cell intrinsic effects, the IMiD/CELMoD resistant cell line DF-15R was also used to rechallenge anti-BCMA CAR T cells that had been chronically stimulated for 7 days. Cytolytic activity and cytokine production following the rechallenge were assessed as described above."}, "[2]": {"test_system": "DF-15(R) (multiple myeloma) cells", "assay": "Murine orthotopic DF-15(R) tumor model (resistant), anti-BCMA CAR T cells plus Compound A", "assay_type": "in vivo, mouse", "details": "combination", "description": "Anti-tumor effects of anti-BCMA CAR T cells, alone and in combination with concurrent or delayed administration of Compound A (iberdomide, (S)-3-[4-(4-morpholin ylmethyl-benzyloxy)-1-oxo-1,3-dihydro-isoindol-2-yl]-piperidine-2,6-dione), were assessed in disseminated tumor models. The combinatorial effects were assessed in both tumor models sensitive to and resistant to the immunomodulatory compound. The anti-BCMA CAR T cells used in the study were produced as described in Example 1.\nThe effects of anti-BCMA CAR-T cells in combination with Compound A was assessed in a murine orthotopic tumor model using DF-15(R) cells, which is a tumor model that is resistant to the immunomodulatory compound. Mice (NOD.Cg-Prkdc^scidIL-2rg^tm1Wj1/SzJ mice (NSG; Jackson Labs)) were injected intravenously (i.v.) with 2×10^6 DF-15(R) (multiple myeloma) cells transfected with firefly luciferase ([…]). Tumor engraftment was allowed to occur for 13 days prior to staging (14 days before CAR-T cell administration) and verified using bioluminescence imaging.\nIn one study, mice were administered Compound A (1 mg/kg or 3 mg/kg) via oral administration once a day starting from the day before administration of 0.5×10^6 anti-BCMA CAR T cells, and administration of Compound A was continued once a day until 32 days post-CAR T cell administration (concurrent dosing). […]\nFor bioluminescence imaging (BLI), mice received intraperitoneal (i.p.) injections of luciferin substrate (CaliperLife Sciences, Hopkinton, Mass.) resuspended in PBS (15 μg/g body weight). The average radiance (p/s/cm^2/sr) was determined. Survival of mice treated as described above were assessed and compared over time post-infusion of CAR-expressing T cells. […]\nThe numbers of CD3+ CAR T cells were determined in the blood at day 6 and day 14 by flow cytometry using antibodies directed against CD3 and the surrogate marker on the CAR-expressing cells."}, "CRBN": {"target": "CRBN (Homo sapiens, UniProt Q96SW2)", "sequence (Q96SW2 whole entry, species assumed)": "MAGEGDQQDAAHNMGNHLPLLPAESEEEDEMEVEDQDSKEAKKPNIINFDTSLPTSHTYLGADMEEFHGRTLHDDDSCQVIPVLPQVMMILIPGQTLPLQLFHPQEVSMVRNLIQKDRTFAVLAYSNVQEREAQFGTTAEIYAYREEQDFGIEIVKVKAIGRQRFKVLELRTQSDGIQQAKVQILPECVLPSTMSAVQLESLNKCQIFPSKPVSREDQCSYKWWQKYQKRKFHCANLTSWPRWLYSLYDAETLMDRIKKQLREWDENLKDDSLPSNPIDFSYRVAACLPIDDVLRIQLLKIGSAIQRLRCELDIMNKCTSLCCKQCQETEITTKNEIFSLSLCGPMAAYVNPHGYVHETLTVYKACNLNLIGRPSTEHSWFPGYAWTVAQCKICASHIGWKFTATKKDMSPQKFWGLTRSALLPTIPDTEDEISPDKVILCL", "details": "compared with lenalidomide and pomalidomide; cited from earlier work"}, "Aiolos and Ikaros": {"test_system": "Aiolos and Ikaros", "details": "compared with lenalidomide and pomalidomide; cited from earlier work"}}, "data": [{"smiles": "O=C1CC[C@H](N2Cc3c(OCc4ccc(CN5CCOCC5)cc4)cccc3C2=O)C(=O)N1", "note": "[Compound A, (S)-3-[4-(4-morpholin-4-ylmethyl-benzyloxy)-1-oxo-1,3-dihydro-isoindol-2-yl]-piperidine-2,6-dione]", "values": [{"measurement": "CAR T cytokine production (IL-2, TNFα, IFN-gamma in supernatant)", "setting": "RPMI-8226 target cells", "result": "enhanced"}, {"measurement": "cytolytic activity", "setting": "[1]; Compound A 1 or 10 nM, FIG. 11A", "result": "increased cytolytic activity"}, {"measurement": "cytokine production (IFN-gamma, IL-2, TNF-alpha)", "setting": "[1]; FIG. 11B-D", "result": "increased"}, {"measurement": "tumor burden (BLI) versus anti-BCMA CAR T cells alone", "setting": "[2]; concurrent dosing, 1 or 3 mg/kg oral, FIG. 7A", "result": "reduce tumor burden"}, {"measurement": "survival versus anti-BCMA CAR T cells alone", "setting": "[2]; concurrent dosing, FIG. 7B", "result": "improve survival"}, {"measurement": "numbers of CD3+ CAR+ T cells in the blood", "setting": "[2]; concurrent regimen, low and high dose, day 6 and day 14, FIG. 7C", "result": "statistically significant increase"}, {"measurement": "binding to CRBN", "setting": "CRBN", "result": "binds more potently"}, {"measurement": "efficiency of degrading Aiolos and Ikaros", "setting": "Aiolos and Ikaros", "result": "more efficient at degrading Aiolos and Ikaros than lenalidomide and pomalidomide"}]}]}
